PubChem BioAssay (NCI)
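Test compounds were applied to cells in 96-well plates for 48 hours at 5 doses. The concentration for full growth arrest is given as TGI.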

Key:
Assay in all cases: inhibition of tumour cell growth, NCI panel, 48 h
HOP-62 NSCLC = test system: HOP-62 NSCLC
MOLT-4 leukemia = test system: MOLT-4 leukemia
CAKI-1 renal = test system: CAKI-1 renal
CCRF-CEM leukemia = test system: CCRF-CEM leukemia
SK-OV-3 ovarian = test system: SK-OV-3 ovarian
M14 melanoma = test system: M14 melanoma
IGROV1 ovarian = test system: IGROV1 ovarian
HCT-116 colon = test system: HCT-116 colon
RPMI-8226 leukemia = test system: RPMI-8226 leukemia
MALME-3M melanoma = test system: MALME-3M melanoma
HCT-15 colon = test system: HCT-15 colon
HCC-2998 colon = test system: HCC-2998 colon
OVCAR-4 ovarian = test system: OVCAR-4 ovarian
HL-60(TB) leukemia = test system: HL-60(TB) leukemia
KM12 colon = test system: KM12 colon
K-562 leukemia = test system: K-562 leukemia
A549 NSCLC = test system: A549 NSCLC
HT29 colon = test system: HT29 colon
NCI-H522 lung = test system: NCI-H522 lung
U251 CNS = test system: U251 CNS
RXF 393 renal = test system: RXF 393 renal
SNB-19 CNS = test system: SNB-19 CNS
BT-549 breast = test system: BT-549 breast
MDA-MB-435 = test system: MDA-MB-435
MDA-N = test system: MDA-N
NCI-H460 lung = test system: NCI-H460 lung
SW-620 colon = test system: SW-620 colon
HOP-92 NSCLC = test system: HOP-92 NSCLC
SF-295 CNS = test system: SF-295 CNS
UO-31 renal = test system: UO-31 renal
HS 578T breast = test system: HS 578T breast
SN12C renal = test system: SN12C renal
UACC-62 melanoma = test system: UACC-62 melanoma
NCI/ADR-RES ovarian = test system: NCI/ADR-RES ovarian
SK-MEL-2 melanoma = test system: SK-MEL-2 melanoma
ACHN renal = test system: ACHN renal
SK-MEL-5 melanoma = test system: SK-MEL-5 melanoma
UACC-257 melanoma = test system: UACC-257 melanoma
DU-145 prostate = test system: DU-145 prostate
NCI-H23 lung = test system: NCI-H23 lung
EKVX NSCLC = test system: EKVX NSCLC
T-47D breast = test system: T-47D breast
SR leukemia = test system: SR leukemia
OVCAR-3 ovarian = test system: OVCAR-3 ovarian
LOX IMVI melanoma = test system: LOX IMVI melanoma
786-0 renal = test system: 786-0 renal
PC-3 prostate = test system: PC-3 prostate
MDA-MB-231 breast = test system: MDA-MB-231 breast
TK-10 renal = test system: TK-10 renal
OVCAR-5 ovarian = test system: OVCAR-5 ovarian
MCF7 breast = test system: MCF7 breast
A498 renal = test system: A498 renal
SF-268 CNS = test system: SF-268 CNS
COLO 205 colon = test system: COLO 205 colon
SNB-75 CNS = test system: SNB-75 CNS
OVCAR-8 ovarian = test system: OVCAR-8 ovarian
NCI-H226 lung = test system: NCI-H226 lung
SK-MEL-28 melanoma = test system: SK-MEL-28 melanoma

CNc1ccc2c(c1)[C@@]1(C)c3ccccc3[C@@H](C2)N1C
TGI (HOP-62 NSCLC): > 100 µM | TGI (MOLT-4 leukemia): 47.6 µM | TGI (CAKI-1 renal): > 100 µM | TGI (CCRF-CEM leukemia): 52.7 µM | TGI (SK-OV-3 ovarian): > 100 µM | TGI (M14 melanoma): 49.6 µM | TGI (IGROV1 ovarian): > 100 µM | TGI (HCT-116 colon): 33.4 µM | TGI (RPMI-8226 leukemia): 38.9 µM | TGI (MALME-3M melanoma): 82.1 µM | TGI (HCT-15 colon): 53 µM | TGI (HCC-2998 colon): 44.5 µM | TGI (OVCAR-4 ovarian): > 100 µM | TGI (HL-60(TB) leukemia): 38.5 µM | TGI (KM12 colon): 78.3 µM | TGI (K-562 leukemia): 67.5 µM | TGI (A549 NSCLC): > 100 µM | TGI (HT29 colon): 64.8 µM | TGI (NCI-H522 lung): 37.7 µM | TGI (U251 CNS): 47.5 µM | TGI (RXF 393 renal): 50.8 µM | TGI (SNB-19 CNS): > 100 µM | TGI (BT-549 breast): 35.9 µM | TGI (MDA-MB-435): 39.1 µM | TGI (MDA-N): 74.7 µM | TGI (NCI-H460 lung): 39.9 µM | TGI (SW-620 colon): > 100 µM | TGI (HOP-92 NSCLC): 74.4 µM | TGI (SF-295 CNS): > 100 µM | TGI (UO-31 renal): > 100 µM | TGI (HS 578T breast): > 100 µM | TGI (SN12C renal): 33 µM | TGI (UACC-62 melanoma): 35.7 µM | TGI (NCI/ADR-RES ovarian): 64.2 µM | TGI (SK-MEL-2 melanoma): 51.7 µM | TGI (ACHN renal): > 100 µM | TGI (SK-MEL-5 melanoma): 32 µM | TGI (UACC-257 melanoma): 60.6 µM | TGI (DU-145 prostate): > 100 µM | TGI (NCI-H23 lung): 61.5 µM | TGI (EKVX NSCLC): 97.3 µM | TGI (T-47D breast): > 100 µM | TGI (SR leukemia): 54.7 µM | TGI (OVCAR-3 ovarian): 50.5 µM | TGI (LOX IMVI melanoma): 36.6 µM | TGI (786-0 renal): 34.3 µM | TGI (PC-3 prostate): > 100 µM | TGI (MDA-MB-231 breast): 62.6 µM | TGI (TK-10 renal): 86.2 µM | TGI (OVCAR-5 ovarian): 86.2 µM | TGI (MCF7 breast): > 100 µM | TGI (A498 renal): 74 µM | TGI (SF-268 CNS): > 100 µM

CCCN(CCCc1ccccc1)CCc1ccc2[nH]c(=S)[nH]c2c1
TGI (HOP-62 NSCLC): > 100 µM | TGI (COLO 205 colon): 42.6 µM | TGI (MOLT-4 leukemia): 54 µM | TGI (SNB-75 CNS): 68.3 µM | TGI (OVCAR-8 ovarian): > 100 µM | TGI (CAKI-1 renal): > 100 µM | TGI (SK-OV-3 ovarian): > 100 µM | TGI (M14 melanoma): 40 µM | TGI (IGROV1 ovarian): 79.9 µM | TGI (HCT-116 colon): > 100 µM | TGI (RPMI-8226 leukemia): 39.9 µM | TGI (MALME-3M melanoma): 25.5 µM | TGI (HCT-15 colon): > 100 µM | TGI (NCI-H226 lung): > 100 µM | TGI (HCC-2998 colon): 26 µM | TGI (OVCAR-4 ovarian): > 100 µM | TGI (KM12 colon): > 100 µM | TGI (K-562 leukemia): 29.3 µM | TGI (A549 NSCLC): > 100 µM | TGI (U251 CNS): > 100 µM | TGI (RXF 393 renal): 76.1 µM | TGI (SNB-19 CNS): 91.7 µM | TGI (BT-549 breast): > 100 µM | TGI (MDA-MB-435): 41.8 µM | TGI (MDA-N): 41.7 µM | TGI (NCI-H460 lung): 26.1 µM | TGI (SW-620 colon): > 100 µM | TGI (HOP-92 NSCLC): 42.6 µM | TGI (SF-295 CNS): 26 µM | TGI (UO-31 renal): 51.4 µM | TGI (HS 578T breast): > 100 µM | TGI (SN12C renal): > 100 µM | TGI (UACC-62 melanoma): 74.4 µM | TGI (NCI/ADR-RES ovarian): > 100 µM | TGI (SK-MEL-2 melanoma): 38.4 µM | TGI (ACHN renal): > 100 µM | TGI (SK-MEL-28 melanoma): 51.5 µM | TGI (UACC-257 melanoma): 44.3 µM | TGI (DU-145 prostate): > 100 µM | TGI (NCI-H23 lung): > 100 µM | TGI (EKVX NSCLC): > 100 µM | TGI (T-47D breast): 43.2 µM | TGI (SR leukemia): 25.1 µM | TGI (OVCAR-3 ovarian): > 100 µM | TGI (LOX IMVI melanoma): > 100 µM | TGI (786-0 renal): 25.4 µM | TGI (PC-3 prostate): > 100 µM | TGI (MDA-MB-231 breast): > 100 µM | TGI (TK-10 renal): > 100 µM | TGI (OVCAR-5 ovarian): > 100 µM | TGI (MCF7 breast): > 100 µM | TGI (A498 renal): > 100 µM | TGI (SF-268 CNS): > 100 µM
